According to PubChem BioAssay (NCI):
Where “and” joins values, the source holds several entries; their conditions need not be identical. Identical values can stand only once.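 Dose response: 5 concentrations. Exposure: 48 h. Format: 96-well plates. Endpoint: linear interpolation; highest concentration if not reached. Here, GI50 denotes the concentration required for 50% inhibition of growth. TGI: concentration producing complete growth inhibition.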

Assays:
Test in all cases: growth of human tumour cells (NCI), 48 h
[1] = test system: SN12C renal
[2] = test system: HL-60(TB) leukemia
[3] = test system: ACHN renal
[4] = test system: TK-10 renal
[5] = test system: OVCAR-3 ovarian
[6] = test system: T-47D breast
[7] = test system: MOLT-4 leukemia
[8] = test system: IGROV1 ovarian
[9] = test system: HOP-62 NSCLC
[10] = test system: RXF 393 renal

O=[N+]([O-])c1ccc(Sc2ncnc3nc[nH]c23)c2nonc12
GI50 [1]: 18.1 µM
TGI [1]: 53.1 µM
GI50 [2]: 2.8 µM
TGI [2]: 6.03 µM
GI50 [3]: 4.04 µM
TGI [3]: 16.1 µM
GI50 [4]: 2.34 µM
TGI [4]: 23.7 µM
GI50 [5]: 0.714 µM
TGI [5]: 16.6 µM
GI50 [6]: 2.09 µM
TGI [6]: > 100 µM
GI50 [7]: 2.07 µM
TGI [7]: 15.7 µM
GI50 [8]: 2.32 µM
TGI [8]: 7.64 µM
GI50 [9]: 4.97 µM
TGI [9]: 20.7 µM

N/N=C(\C(=O)Nc1ccc(Cl)cc1Cl)C(c1cnc2ccccc2n1)[N+](=O)[O-] (stereo not given)
TGI [1]: > 100 µM
TGI [2]: > 100 µM
TGI [3]: > 100 µM
TGI [10]: > 100 µM
TGI [4]: > 100 µM
TGI [5]: > 100 µM
TGI [6]: > 100 µM
TGI [8]: > 100 µM
TGI [9]: > 100 µM

C=C(C)[C@@H]1CC[C@]2(C(=O)O)CC[C@]3(C)[C@H](CC[C@@H]4[C@@]5(C)C[C@@H](CC#Cc6ccc(C(F)(F)F)cc6)[C@H](O)C(C)(C)[C@@H]5CC[C@]43C)[C@@H]12
GI50 [2]: 6.2 µM
TGI [2]: > 100 µM
GI50 [3]: 4.04 µM
TGI [3]: > 100 µM
GI50 [10]: 2.39 µM
TGI [10]: 5.49 µM
GI50 [4]: 6.11 µM
TGI [4]: > 100 µM
GI50 [6]: 4.75 µM
TGI [6]: > 100 µM
GI50 [7]: 2.75 µM
TGI [7]: > 100 µM
GI50 [8]: 3.56 µM
TGI [8]: > 100 µM

Clc1cccc(Cl)c1C1CSc2ccccc2N=C1c1ccccc1 (stereo not given)
GI50 [1]: 3.35 µM
TGI [1]: 12.3 µM
GI50 [2]: 8.2 µM
TGI [2]: 38.7 µM
GI50 [3]: 2.45 µM
TGI [3]: 7.3 µM
GI50 [10]: 9.74 µM
TGI [10]: 24.1 µM
GI50 [4]: 3.69 µM
TGI [4]: 9.27 µM
GI50 [5]: 3.92 µM
TGI [5]: 13.4 µM
GI50 [6]: 8.39 µM
TGI [6]: 34.5 µM
GI50 [7]: 3.86 µM
TGI [7]: 37.6 µM
GI50 [8]: 3.13 µM
TGI [8]: 11.8 µM
GI50 [9]: 20.7 µM
TGI [9]: 41 µM

CCN(CC)CCOc1ccccc1/C=C/c1noc2ccccc12
TGI [1]: 24.6 µM
TGI [2]: 40.1 µM
TGI [3]: 25.9 µM
TGI [10]: 9.97 µM
TGI [4]: 28.7 µM
TGI [5]: 38.1 µM
TGI [6]: 32.4 µM
TGI [7]: 76.7 µM
TGI [8]: 22.3 µM
TGI [9]: 31.3 µM

COC1CCN(C(=O)c2cc(Cc3n[nH]c(=O)c4ccccc34)ccc2F)CC1
GI50 [1]: 67.5 µM
TGI [1]: > 100 µM
GI50 [2]: > 85.3 µM
TGI [2]: > 100 µM
GI50 [3]: > 100 µM
TGI [3]: > 100 µM
GI50 [10]: 0.926 µM
TGI [10]: 45.2 µM
GI50 [4]: > 100 µM
TGI [4]: > 100 µM
GI50 [5]: 74.1 µM
TGI [5]: > 100 µM
GI50 [6]: 53.6 µM
TGI [6]: > 100 µM
GI50 [7]: 39.3 µM
TGI [7]: > 100 µM
GI50 [8]: > 60.4 µM
TGI [8]: > 100 µM
GI50 [9]: 33.4 µM
TGI [9]: > 100 µM

c1cc2[nH]ncc2cc1-c1nc2ccc3[nH]ncc3c2c2c1CCCC2
GI50 [1]: 2.53 µM
TGI [1]: 13.4 µM
GI50 [2]: 0.512 µM
TGI [2]: 3.09 µM
GI50 [3]: 0.583 µM
TGI [3]: 10.7 µM
GI50 [10]: 0.822 µM
TGI [10]: 2.86 µM
GI50 [4]: 0.913 µM
TGI [4]: 21.8 µM
GI50 [5]: 1.78 µM
TGI [5]: 7.58 µM
GI50 [6]: 2.02 µM
TGI [6]: 12.3 µM
GI50 [7]: 1.13 µM
TGI [7]: > 20.9 µM
GI50 [8]: 0.541 µM
TGI [8]: 7.29 µM
GI50 [9]: 1.39 µM
TGI [9]: 9.11 µM

CS(=O)(=O)Nc1ccc(-c2cc(-c3ccccc3)cc(C(N)=O)c2N)cc1
GI50 [1]: > 25 µM
TGI [1]: > 25 µM
GI50 [2]: > 23.4 µM
TGI [2]: > 25 µM
GI50 [3]: > 25 µM
TGI [3]: > 25 µM
GI50 [10]: > 25 µM
TGI [10]: > 25 µM
GI50 [4]: > 25 µM
TGI [4]: > 25 µM
GI50 [5]: > 23.8 µM
TGI [5]: > 25 µM
GI50 [6]: > 21.5 µM
TGI [6]: > 25 µM
GI50 [7]: 19.5 µM
TGI [7]: > 25 µM
GI50 [8]: > 25 µM
TGI [8]: > 25 µM
GI50 [9]: > 25 µM
TGI [9]: > 25 µM

O=C(CN(/C=C/C(=O)C(F)(F)F)c1ccc(Cl)cc1)c1ccccc1
GI50 [1]: 16 µM
TGI [1]: 34.2 µM
GI50 [2]: 17.3 µM
TGI [2]: 66.7 µM
GI50 [3]: 13.7 µM
TGI [3]: 28.9 µM
GI50 [10]: 21.7 µM
TGI [10]: 43.5 µM
GI50 [4]: 7.88 µM
TGI [4]: 37.2 µM
GI50 [5]: 9.15 µM
TGI [5]: 46.3 µM
GI50 [6]: 4.08 µM
TGI [6]: > 100 µM
GI50 [7]: 39.7 µM
TGI [7]: > 100 µM
GI50 [8]: 0.303 µM
TGI [8]: 24.3 µM
GI50 [9]: 11.4 µM
TGI [9]: 24.5 µM

C=CC(=O)NCc1cccc(Nc2ncc(Br)c(NCCCNC(=O)C3CCC3)n2)c1
GI50 [1]: 0.621 µM and 0.45 µM
TGI [1]: 12.5 µM and > 25 µM
GI50 [2]: 0.821 µM and 0.893 µM
TGI [2]: 5.96 µM and > 25 µM
GI50 [3]: 1.66 µM and 0.712 µM
TGI [3]: 12.5 µM and > 25 µM
GI50 [10]: 0.166 µM and 0.123 µM
TGI [10]: 0.844 µM and 0.468 µM
GI50 [4]: 0.41 µM and 1.86 µM
TGI [4]: 4.21 µM and 11.6 µM
GI50 [5]: 1.57 µM and 1.18 µM
TGI [5]: 4.78 µM and 8.16 µM
GI50 [6]: 4.86 µM and 5.07 µM
TGI [6]: 12.5 µM and 22.5 µM
GI50 [7]: 1.73 µM and 2.28 µM
TGI [7]: 12.5 µM and > 25 µM
GI50 [8]: 1.17 µM and 0.732 µM
TGI [8]: 12.5 µM and 15.8 µM
GI50 [9]: 0.448 µM and 0.152 µM
TGI [9]: 9.77 µM and 4.33 µM

O=[N+]([O-])c1ccccc1N/N=C\c1c[nH]c2ccccc12
GI50 [1]: 10.2 µM
TGI [1]: > 100 µM
GI50 [2]: 5.56 µM
TGI [2]: > 100 µM
GI50 [3]: 13.9 µM
TGI [3]: > 67.3 µM
GI50 [10]: 10.7 µM
TGI [10]: 57.8 µM
GI50 [4]: 15 µM
TGI [4]: > 72.6 µM
GI50 [5]: 8.18 µM
TGI [5]: > 64.9 µM
GI50 [6]: 3.52 µM
TGI [6]: > 100 µM
GI50 [7]: 4.42 µM
TGI [7]: > 100 µM
GI50 [8]: 0.0379 µM
TGI [8]: 3.92 µM
GI50 [9]: 13.8 µM
TGI [9]: 31.1 µM

O=C1c2nsnc2C(=O)c2c(F)c(F)c(F)c(F)c21
GI50 [1]: 0.998 µM
TGI [1]: 2.28 µM
GI50 [2]: 0.591 µM
TGI [2]: 2.73 µM
GI50 [3]: 0.501 µM
TGI [3]: 1.2 µM
GI50 [10]: 0.339 µM
TGI [10]: 1.09 µM
GI50 [4]: 0.71 µM
TGI [4]: 1.92 µM
GI50 [6]: 0.473 µM
TGI [6]: 2.37 µM
GI50 [7]: 0.298 µM
TGI [7]: 1.44 µM
GI50 [8]: 1.52 µM
TGI [8]: 5.07 µM
GI50 [9]: 0.913 µM
TGI [9]: 2.24 µM

Cc1ccc(S(=O)(=O)N2CCSCCN(S(=O)(=O)c3ccc(C)cc3)CCN(S(=O)(=O)c3ccc(C)cc3)CC2)cc1
TGI [1]: > 100 µM
TGI [2]: > 100 µM
TGI [10]: > 100 µM
TGI [5]: > 100 µM
TGI [6]: > 100 µM
TGI [7]: > 100 µM
TGI [8]: > 100 µM
TGI [9]: 69 µM

COc1ccc2c(CN3CCC(C(=O)O)CC3)cc3cc4c(cc3c2c1)OCO4
GI50 [1]: 1.27 µM
TGI [1]: 4.08 µM
GI50 [2]: 3.97 µM
TGI [2]: 15.3 µM
GI50 [3]: 1.41 µM
TGI [3]: 5.45 µM
GI50 [10]: 1.14 µM
TGI [10]: 3.6 µM
GI50 [4]: 3.23 µM
TGI [4]: 25 µM
GI50 [5]: 2.85 µM
TGI [5]: 9.64 µM
GI50 [6]: 3.62 µM
TGI [6]: 17.7 µM
GI50 [7]: 3.05 µM
TGI [7]: 9.73 µM
GI50 [9]: 2.71 µM
TGI [9]: 11.4 µM
